{"source": "paper PMC10283052", "about": "“Intranasal delivery of mitochondrial protein humanin rescues cell death and promotes mitochondrial function in Parkinson's disease” (Theranostics, 2023)", "key": {"SH-SY5Y cells [1]": {"test_system": "SH-SY5Y cells", "experiment": "Real-time qPCR of mitochondrial rRNA and humanin transcripts", "type": "cell-based, human", "procedure": "For real-time qPCR, total RNA was extracted using TRIzol reagent (Thermo Fisher Scientific). cDNA was synthesized using a cDNA synthesis kit (Bioneer Corporation), according to the manufacturer's protocol. The mRNA levels were analyzed in a LightCycler 96 (Roche, Basel, Switzerland) using SYBR Green I master mix and SensiFAST™ SYBR® No-ROX Kit (Bioline, Paris, France). B2M (beta-2-microglobulin) gene expression was used to normalize gene expression data. The primer sequences used in this experiment are in Table S2."}, "JNK, p38 MAPK, AKT, ERK": {"test_system": "JNK, p38 MAPK, AKT, ERK", "experiment": "Signaling kinase activation in striatum of MPTP mice, western blot", "type": "in vivo, mouse", "settings": "MPTP PD mice, intranasal HN 0.1 and 5 mg/kg", "procedure": "(§1) A mouse model of PD was generated using the neurotoxin MPTP-HCl (Sigma-Aldrich, St. Louis, MO, USA), as previously described. Seven- to eight-week-old male C57BL/6J mice were injected with MPTP (20 mg/kg/day) for five consecutive days for the subacute delivery of MPTP. The mice in the control group received the same volume of phosphate buffer saline (PBS).\n(§2) For intranasal HN treatment, the synthetic HN peptide was delivered according to a procedure reported by Capsoni et al. The synthetic HN peptide was diluted in ddH2O to a concentration of 0.1 and 5 mg/kg for mice (total volume of 40 μL) at 37 ℃ with mild stirring. The mice were held firmly in one hand in a supine position with their head at 90°. Synthetic HN was administered in the form of 5-μL drops over 20 min in alternating nostrils every 3 min. After administration, the heads of the mice were held in the same position to prevent loss of the applied solution from the nares.\n(§3) Mouse brain tissue samples and cells were homogenized in radioimmunoprecipitation assay (RIPA) buffer (Cell Signaling, Danvers, MA, USA) in the presence of a protease and phosphatase inhibitor cocktail (Thermo Fisher Scientific). The samples were sonicated on ice, and the supernatant was collected after centrifugation at 4°C at 10,000 g for 5 min. […] The results were analyzed using the ImageJ densitometry system. […]"}, "MPTP mouse model of PD": {"test_system": "MPTP mouse model of PD", "experiment": "MPTP mouse model of PD, intranasal HN", "type": "in vivo", "settings": "intranasal HN 0.1 and 5 mg/kg", "procedure": "as §1, §2\nTo stain the mouse brain tissue samples, transcardial perfusion was performed using PBS and 4% paraformaldehyde in PBS. The brain and trigeminal ganglia were removed, post-fixed using 4% paraformaldehyde in PBS, and stored in a 30% sucrose solution at 4 ℃ until they sank. Coronal sections were prepared (thickness: 10 µm) using a sliding microtome. After blocking with 5% BSA, the samples were incubated with the appropriate primary antibody as mentioned above. After incubation with the primary antibodies, the tissue samples were incubated with Alexa Fluor 594- or 488-conjugated antibodies (Thermo Fisher Scientific) for immunofluorescence or with secondary biotinylated anti-rabbit IgG (H+L) (Vector Laboratories, Burlingame, CA, USA) for immunohistochemistry. […] Mitochondrial network morphology was further assessed using the FIJI/ImageJ software as described previously.\nas §3, with “Scientific).” for “Scientific). The samples were sonicated on ice, and the supernatant was collected after centrifugation at 4°C at 10,000 g for 5 min.”"}, "SH-SY5Y cells [2]": {"test_system": "SH-SY5Y cells", "experiment": "HN-induced intracellular humanin expression, western blot, SH-SY5Y", "type": "cell-based, human", "settings": "HN treatment 24 h, several doses, basal humanin undetectable", "procedure": "The SH-SY5Y human neuroblastoma cell line and PC12 rat pheochromocytoma cell line were purchased from the Korean Cell Line Bank (Seoul, South Korea). Undifferentiated SH-SY5Y cells were grown in Dulbecco's modified Eagle's medium nutrient mixture F-12 (DMEM/F12; Thermo Fisher Scientific) supplemented with 10% FBS and 1% P/S. Undifferentiated PC12 cells were grown in DMEM (Thermo Fisher Scientific) supplemented with 5% FBS, 5% horse serum, and 1% P/S on poly-D-lysine (PDL, Sigma-Aldrich) plates.\nFor HN treatment of cells, HN stock solution was first incubated at 37 ℃ with mild stirring for 0.5 h. The solution was then added to the culture medium to achieve a desirable final concentration as described above.\nas §3, with “min. The protein samples were loaded and separated using Tris-glycine SDS-PAGE. To detect the HN peptide, the proteins were separated into three layers of tricine SDS-PAGE, as previously described.” for “min.”"}}, "data": [{"substance": "humanin (MAPRGFSCLLLLTSEIDLPVKRRA; Humanin; UniProt Q8IVG9 1-24, looked up) [HN, mitochondria-derived peptide encoded by the mitochondrial genome, synthesized by Fmoc-based SPPS at GL Biochem]", "values": [{"measurement": "transcript levels of regions across mitochondrial rRNA and humanin", "setting": "SH-SY5Y cells [1]; up to 24 h after HN treatment, slightly declined over time", "value": "significantly upregulated up to 24 h"}, {"measurement": "transcript levels of regions across mitochondrial rRNA and humanin", "setting": "SH-SY5Y cells [1]; within 3 h of HN treatment", "value": "significant upregulation"}, {"measurement": "activation of JNK and p38 MAPK in striatum", "setting": "JNK, p38 MAPK, AKT, ERK", "value": "inhibited the activation of JNK and p38 MAPK"}, {"measurement": "activation of AKT and ERK in brain tissue", "setting": "JNK, p38 MAPK, AKT, ERK; dose-dependent", "value": "promoted the activation of AKT and ERK"}, {"measurement": "motor function, pole test", "setting": "MPTP mouse model of PD; MPTP 20 mg/kg/day for 5 days", "value": "steady motor improvements in a dose-dependent manner"}, {"measurement": "TH expression, dopaminergic neurons of substantia nigra pars compacta", "setting": "MPTP mouse model of PD; dose-dependent, TH staining, stereology", "value": "significantly restored TH expression"}, {"measurement": "TH protein in striatum lysates, western blot", "setting": "MPTP mouse model of PD; three independent blots", "value": "confirmed the impact of intranasal delivery of HN on protecting TH^+ dopaminergic neurons"}, {"measurement": "intracellular humanin expression", "setting": "SH-SY5Y cells [2]", "value": "induced its intracellular expression in a dose-dependent manner"}]}]}
